Tests used:
[1] = system: Ehrlich ascites carcinoma; experiment: Ehrlich ascites carcinoma growth in CF1 male mice; assay type: in vivo, mouse
Procedure: CF1 male mice (~30 g) were implanted with 2×10^6 Ehrlich ascites tumor cells, intraperitoneally on Day 0. Compound I was suspended by homogenation in 0.05% polysorbate.80-water and administered intraperitoneally at 10 and 20 mg/kg for 9 days to determine its effectiveness for inhibition of tumor growth. Mice were sacrificed on Day 10, and the ascites fluid was collected from the peritoneal cavity. The volume and ascrit (packed cell volume) were determined for each animal and the percent inhibition of tumor growth was calculated. For the metabolic studies, mice were treated on Days 8 and 9 with 10 mg/kg of Compound I, intraperitoneally. The animal was sacrificed on Day 10 and the ascites fluid harvested. The in vitro metabolic studies were performed at […] final concentration of Compound I.

[2] = doses of 150-200 mg/kg; cited from earlier work

| SMILES | Ascrit Packed Cell Vol. ([1]; Standard, dose not given) | Percent Inhibition ([1]; Standard, dose not given) | Vol(ml) Ascites Fluid ([1]; Standard, dose not given) | No. of Animals Survived on Day 10 ([1]; mouse, in vivo) | lowers serum cholesterol [2] | lowers serum triglyceride levels [2] |
| --- | --- | --- | --- | --- | --- | --- |
| Sc1ncnc2nc[nH]c12 [6-mercaptopurine, reference compound] | 2.5 | 99.9% | 0.10 mL | 6 | – | – |
| CCOC(=O)C(C)(C)Oc1ccc(Cl)cc1 [clofibrate] | – | – | – | – | 6-15% | 25% |
